Test results taken from patent US9657013B2, “Inhibitors of hepatitis B virus covalently closed circular DNA formation and their method of use” (priority 2012, dated 2017).

What was measured:
[1] = tested on: HBV cccDNA; assay: cccDNA inhibition assay (Southern blot of Hirt DNA); type: cell-based, hepatitis B virus; conditions: for levels of HBV cccDNA and DP-rcDNA in cell cultures / EC50: HepDES19 cells; for levels of HBV cccDNA and DP-rcDNA in cell cultures: day 12, figure legend; for EC50: 288 h, harvested at day 12, read-out: EC50 of reduction of cccDNA
Protocol: Cell cultures: HepG2.2.15 cells were maintained in DMEM/F12 medium (Mediatech, Manassas, Va.) supplemented with 10% fetal bovine serum, 100 U/ml penicillin and 100 μg/ml streptomycin, plus 400 μg/ml G418. Tetracycline inducible HBV producer cells, specifically HepDE19 and HepDES19 cells, were maintained in the same way as HepG2.2.15, but with the addition of 1 μg/ml tetracycline (Guo, H., D. Jiang, T. Zhou, A. Cuconati, T. M. Block, and J. T. Guo. 2007). To initiate HBV replication and cccDNA formation in HepDE19 and HepDES19 cells, tetracycline was withdrawn from the culture medium and the cells were cultured for the indicated time period.
Viral nucleic acid analysis: Total cellular RNA was extracted with TRIzol reagent (Invitrogen, Grand Island, N.Y.) by following manufacturer's directions. Ten microgram of total cellular RNA was resolved in 1.5% agarose gel containing 2.2 M formaldehyde and transferred onto Hybond-XL membrane (GE Healthcare, Piscataway, N.J.) in 20×SSC buffer. Intracellular hepadnaviral core DNA and cccDNA (Hirt DNA) were extracted as described previously (Guo, H., D. Jiang, T. Zhou, A. Cuconati, T. M. Block, and J. T. Guo. 2007. Guo, H., D. Jiang, T. Zhou, A. Cuconati, T. M. Block, and J. T. Guo. 2007. Guo, H., R. Mao, T. M. Block, and J. T. Guo. 2010. Guo, H., W. S. Mason, C. E. Aldrich, J. R. Saputelli, D. S. Miller, A. R. Jilbert, and J. E. Newbold. 2005). Half of the DNA samples recovered from one well of a 6-well-plate were resolved by electrophoresis into a 1.2% agarose gel and blotted onto Hybond-XL membrane. Membranes were probed with either an α-^32P-UTP (800 Ci/mmol, Perkin Elmer) labeled hepadnaviral minus (detecting DNA) or plus strand (detecting RNA) specific full-length riboprobe and exposed to a phosphorimager screen (Fuji Film, Tokyo, Japan). Hybridization signals were visualized by Typhoon FLA-7000 (GE Healthcare) and quantified with ImageQuantTL software (GE Healthcare). […]
Identification of compounds that inhibits cccDNA accumulation in HepDES19 cells: Compounds were tested on HepDES19 cells, which have a higher level of cccDNA production than HepDE19 cells (Guo, H., D. Jiang, T. Zhou, A. Cuconati, T. M. Block, and J. T. Guo. 2007). Briefly, after withdrawal of tetracycline, HepDES19 cells were left untreated, or were treated with compound at serial concentrations; tetracycline-free media was changed every other day with fresh compound supplementation. The concentration of DMSO in all experimental groups was normalized at 0.1%. The cells were harvested at day 12, viral RNA (top panel), core DNA (middle panel), and Hirt DNA (DP-rcDNA and cccDNA) (bottom panels) were extracted and analyzed by Northern blot and Southern blot, respectively. Shorter exposure of the Hirt DNA blot was used for the quantitative determination of DP-rcDNA signals. […] The reduction between DP-rcDNA and cccDNA was proportional compared with untreated control. […] Liu, C. P. Hu, and C. Chang. 2005. Guo, H., T. Zhou, D. Jiang, A. Cuconati, G. H. Xiao, T. M. Block, and J. T. Guo. 2007. Zhou, T., H. Guo, J. T. Guo, A. Cuconati, A. Mehta, and T. M. Block. 2006).

[2] = tested on: HBV DP-rcDNA; assay: DP-rcDNA level in HepDES19 cells (Southern blot); type: cell-based, hepatitis B virus; conditions: for reduction of DP-rcDNA: early time point
From the text: Viral nucleic acid analysis: Total cellular RNA was extracted with TRIzol reagent (Invitrogen, Grand Island, N.Y.) by following manufacturer's directions. Ten microgram of total cellular RNA was resolved in 1.5% agarose gel containing 2.2 M formaldehyde and transferred onto Hybond-XL membrane (GE Healthcare, Piscataway, N.J.) in 20×SSC buffer. Intracellular hepadnaviral core DNA and cccDNA (Hirt DNA) were extracted as described previously (Guo, H., D. Jiang, T. Zhou, A. Cuconati, T. M. Block, and J. T. Guo. 2007. Guo, H., D. Jiang, T. Zhou, A. Cuconati, T. M. Block, and J. T. Guo. 2007. Guo, H., R. Mao, T. M. Block, and J. T. Guo. 2010. Guo, H., W. S. Mason, C. E. Aldrich, J. R. Saputelli, D. S. Miller, A. R. Jilbert, and J. E. Newbold. 2005). Half of the DNA samples recovered from one well of a 6-well-plate were resolved by electrophoresis into a 1.2% agarose gel and blotted onto Hybond-XL membrane. Membranes were probed with either an α-^32P-UTP (800 Ci/mmol, Perkin Elmer) labeled hepadnaviral minus (detecting DNA) or plus strand (detecting RNA) specific full-length riboprobe and exposed to a phosphorimager screen (Fuji Film, Tokyo, Japan). Hybridization signals were visualized by Typhoon FLA-7000 (GE Healthcare) and quantified with ImageQuantTL software (GE Healthcare).
Identification of compounds that inhibits cccDNA accumulation in HepDES19 cells: Compounds were tested on HepDES19 cells, which have a higher level of cccDNA production than HepDE19 cells (Guo, H., D. Jiang, T. Zhou, A. Cuconati, T. M. Block, and J. T. Guo. 2007). Briefly, after withdrawal of tetracycline, HepDES19 cells were left untreated, or were treated with compound at serial concentrations; tetracycline-free media was changed every other day with fresh compound supplementation. […] The cells were harvested at day 12, viral RNA (top panel), core DNA (middle panel), and Hirt DNA (DP-rcDNA and cccDNA) (bottom panels) were extracted and analyzed by Northern blot and Southern blot, respectively. Shorter exposure of the Hirt DNA blot was used for the quantitative determination of DP-rcDNA signals. […]

Compound | cccDNA inhibition % Reduction ([1]; Concentration 1 μM, 1 µM) [%] | cccDNA inhibition % Reduction ([1]; Concentration 3 μM, 3 µM) [%] | cccDNA inhibition % Reduction ([1]; Concentration 10 μM, 10 µM) [%] | levels of HBV cccDNA and DP-rcDNA in cell cultures [1] | EC50 ([1]; Hepatitis B virus) [µM] | reduction of putative cccDNA precursor DP-rcDNA ([2]; HepDES19 cells, day 12) | reduction of DP-rcDNA [2] | inhibition at 0.3 µM ([1]; Hepatitis B virus, Concentration 0.3 μM, read-out: cccDNA inhibition % Reduction) [%] | inhibition at 1 µM ([1]; Hepatitis B virus, Concentration 1 μM, read-out: cccDNA inhibition % Reduction) [%] | inhibition at 3 µM ([1]; Hepatitis B virus, Concentration 3 μM, read-out: cccDNA inhibition % Reduction) [%]
O=C(CN(c1cc(C(F)(F)F)ccc1Cl)S(=O)(=O)c1ccccc1)NCc1ccncc1 [CCC-0975, 2-[Benzenesulfonyl-(2-chloro-5-trifluoromethyl-phenyl)-amino]-N-pyridin-4-ylmethyl-acetamide] | 10 | 20 | 70 | reduces | 10 | significant reduction | significant reduction | – | – | –
Cc1nc2cc(NC(=O)c3ccc(S(=O)(=O)N(C)Cc4ccccc4)cc3)ccc2s1 [CCC-0346, 4-(Benzyl-methyl-sulfamoyl)-N-(2-methyl-benzothiazol-5-yl)-benzamide] | – | – | – | reduces | 3 | – | significant reduction | 20 | 30 | 60
